Results as given in patent US5550145A, “Potentiation of antimicrobial effects” (Bioglan AB, priority 1992, dated 1996).
Converted amounts (≈) assume the structure as drawn.

Columns and labels:
C. albicans = assay: MIC (minimum inhibitory concentration) determination; format: cell-based
S. aureus = assay: as above; format: cell-based
T. rubrum = assay: as above; format: cell-based
S. epidermis = assay: as above; format: cell-based
P. ovale = assay: as above; format: cell-based
[1] = generally accepted; cited from earlier work
Gram positive bacteria = settings: effects demonstrated only on Gram positive bacteria; cited from earlier work
aerobic bacteria = assay: Killing effect; format: cell-based; settings: aqueous solutions of tinidazole; test not described
Protocol: The composition was prepared as in Example 4. […] In particular, the product is usable for disease states such as acne and seborrhoea.

OCCCCCO [1,5-pentanediol solution, 1,5-pentanediol]
MIC value (C. albicans): 40 mg/mL (≈ 384 mM)
MIC value (S. aureus): 50 mg/mL (≈ 480 mM)
MIC value (T. rubrum): 10 mg/mL (≈ 96 mM)
MIC value (S. epidermis): 50 mg/mL (≈ 480 mM)
MIC value (P. ovale): 20 mg/mL (≈ 192 mM)

CCCCCCCCCCCC(=O)OCC(O)CO (stereo not shown) [monolaurin, monoglyceride of lauric acid]
toxicity [1]: completely non-toxic
antimicrobial properties per se (Gram positive bacteria): exhibit certain antimicrobial properties

CCCCCCCCCCCCCC(=O)OCC(O)CO (stereo not shown) [monomyristin, monoglyceride of myristic acid]
toxicity [1]: completely non-toxic
antimicrobial properties per se (Gram positive bacteria): exhibit certain antimicrobial properties

CCS(=O)(=O)CCn1c([N+](=O)[O-])cnc1C [tinidazole]
effectiveness of aqueous solutions against aerobic bacteria (aerobic bacteria): not effective
